Consider 2 molecules from US6451851B1, “Pharmaceutical composition with antiviral activity containing an hydroxymic acid derivative and an antiviral agent” (N-Gene Research Laboratories Inc., priority 1997, dated 2002).

Each structure is given as a SMILES string.

For the assay, the target named is T1, Recombinant M-MuLV reverse transcriptase (Moloney murine leukemia virus, UniProt P03355).
T1 construct: Recombinant M-MuLV reverse transcriptase was purchased from New England Biolabs, USA; purchased New England Biolabs
Briefly: Inhibition of M-MuLV reverse transcriptase activity ((3H)dTTP incorporation). In kind it is biochemical. On the procedure: The enhanced antiviral effect of the pharmaceutical composition of the invention was investigated by testing the inhibitory effect thereof on reverse transcriptase activity of Moloney murine virus(M-MuLV). Recombinant M-MuLV reverse transcriptase was purchased from New England Biolabs, USA. Measurement of the activity was carried out by investigating the poli(rA)noligo(dT)12-18 template-primer directed incorporation of (^3H)dTTP(Amersham) into the cDNS.
In each case, the final volume of the reaction mixture was 20 microliters. The composition of the reaction mixture was as follows:
2 microliters of 10× reverse transcriptase buffer,
20 microgram/ml template primer,
the test compound (dissolved in 1× reverse transcriptase buffer solution).
The composition of the 10× reverse transcriptase buffer (1 liter of solution contains the following substances):
500 mM tris-hydrochloride/tris (hydroxy-methyl)-amino-methan-hydrochloride/(pH=8,3),
300 mM potassium-chloride, and
100 mM DTT (dithiotreitol).
The test materials were AZT and compound “L” added separately or together. The reaction was initiated by adding 5U reverse transcriptase. The reaction mixture was incubated for 40 min at 37° C. Then, 15 microliters of reaction mixture was transferred to Whatman DE81 filter-paper disc, washed by 5% by mass of aqueous disodium-hydrogen-phosphate buffer, by water, and then with 96% by mass of ethanol. After drying, the discs were transferred into 5 ml of scintillation liquid (OptiPhase ‘HiSafe 3’, Wallac), and the radioactivity of samples was measured by a Packard Tri-Carb 2200 CE liquid scintillation counter. Enzymatic activity was calculated in percent from the experimental results.

Take `Cc1cn([C@H]2C[C@H](N=[N+]=[N-])[C@@H](CO)O2)c(=O)[nH]c1=O` [AZT, 3′-azido-3′-deoxythymidine]: the activity at 0.1 µM (0.1 microM/ml AZT, control = 100) is 91%. Also, the activity at 0.2 µM (0.2 microM/ml AZT, control = 100) came to 84%. The “inhibitory effect on M-MuLV reverse transcriptase (in words)” value (AZT by itself, in the concentrations applied) is “only minor inhibitory effect”.

On to `Cl.Cl.NC(=NOCC(O)CN1CCCCC1)c1cccnc1` (stereo not drawn) [compound “L”, 0-(3-piperidino-2-hydroxy-1-propyl)nicotinic acid amid-oxime dihydrochloride], for which the “Activity (%)” value reads like this: (0.02 mg/ml compound “L”, control = 100) 75%; (0.03 mg/ml compound “L”, control = 100) 74%. Moreover, the inhibitory effect entry (compound “L” alone) is reported as “about 25%”.
